Experimental data from patent US7202213B2 (Novo Nordisk A/S, priority 2000, dated 2007).

Key:
human PPAR α = biological target: T1, human PPAR α (Homo sapiens, UniProt Q07869); assay: In vitro PPAR alpha transactivation assay (GAL4-DBD-PPAR-LBD luciferase reporter in HEK293 cells); assay type: cell-based; details: for EC50: HEK293 cells, 24 h with compound, five concentrations 0.01 to 30 μM, means of at least three experiments, read-out: In vitro activation PPAR α EC50; for In vitro activation PPAR α % max: fold activation relative to maximum activation obtained with Wy14643 (approx. 20 fold corresponded to 100%)
T1 construct: PPARα: aa 167-C-terminus; PPARγ: aa 165-C-terminus; expressed in transfected cells; host or cells: HEK293
T1 sequence (Q07869 167-468 limits assumed): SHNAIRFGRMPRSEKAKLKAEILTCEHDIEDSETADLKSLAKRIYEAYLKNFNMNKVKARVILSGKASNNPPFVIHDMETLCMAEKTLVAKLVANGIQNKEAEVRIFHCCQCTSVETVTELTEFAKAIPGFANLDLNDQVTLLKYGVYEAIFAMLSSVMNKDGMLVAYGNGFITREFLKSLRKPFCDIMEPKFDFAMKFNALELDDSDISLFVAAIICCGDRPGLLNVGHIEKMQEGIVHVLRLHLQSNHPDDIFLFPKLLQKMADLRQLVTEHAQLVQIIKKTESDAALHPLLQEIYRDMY
Description: (§1) The PPAR gene transcription activation assays were based on transient transfection into human HEK293 cells of two plasmids encoding a chimeric test protein and a reporter protein respectively. The chimeric test protein was a fusion of the DNA binding domain (DBD) from the yeast GAL4 transcription factor to the ligand binding domain (LBD) of the human PPAR proteins. The PPAR LBD harbored in addition to the ligand binding pocket also the native activation domain (activating function 2=AF2) allowing the fusion protein to function as a PPAR ligand dependent transcription factor. The GAL4 DBD will force the fusion protein to bind only to Gal4 enhancers (of which none existed in HEK293 cells). The reporter plasmid contained a Gal4 enhancer driving the expression of the firefly luciferase protein. After transfection, HEK293 cells expressed the GAL4-DBD-PPAR-LBD fusion protein. The fusion protein will in turn bind to the Gal4 enhancer controlling the luciferase expression, and do nothing in the absence of ligand. Upon addition to the cells of a PPAR ligand, luciferase protein will be produced in amounts corresponding to the activation of the PPAR protein. The amount of luciferase protein is measured by light emission after addition of the appropriate substrate.
(§2) Cell culture and transfection: HEK293 cells were grown in DMEM+10% FCS. Cells were seeded in 96-well plates the day before transfection to give a confluency of 50–80% at transfection. A total of 0,8 μg DNA containing 0,64 μg pM1α/γLBD, 0,1 μg pCMVβGal, 0,08 μg pGL2Gal4DBD and 0,02 μg p[…] was transfected per well using FuGene transfection reagent according to the manufacturers instructions (Roche). Cells were allowed to express protein for 48 h followed by addition of compound.
(§3) Plasmids: Human PPAR α and γ was obtained by PCR amplification using cDNA synthesized by reverse transcription of mRNA from liver and adipose tissue respectively. Amplified cDNAs were cloned into pCR2.1 and sequenced. The ligand binding domain (LBD) of each PPAR isoform was generated by PCR(PPARα: aa 167-C-terminus; PPARγ: aa 165-C-terminus) and fused to the DNA binding domain (DBD) of the yeast transcription factor GAL4 by subcloning fragments in frame into the vector pM1 generating the plasmids pM1αLBD and pM1γLBD. Ensuing fusions were verified by sequencing.
(§4) Luciferase assay: Medium including test compound was aspirated and 100 μl PBS incl. 1 mM Mg++ and Ca++ was added to each well. The luciferase assay was performed using the LucLite kit according to the manufacturers instructions (Packard Instruments). Light emission was quantified by counting SPC mode on a Packard Instruments top-counter. To measure β-galactosidase activity 25 μl supernatant from each transfection lysate was transferred to a new microplate. β-galactosidase assays were performed in the microwell plates using a kit from Promega and read in a microplate reader. The β-galactosidase data were used to normalize (transfection efficiency, cell growth etc.) the luciferase data.
(§5) Compounds: All compounds were dissolved in DMSO and diluted 1:1000 upon addition to the cells. Compounds were tested in quadruple in five concentrations ranging form 0.01 to 30 μM. Cells were treated with compound for 24 h followed by luciferase assay. Each compound was tested in three separate experiments. EC50 values were calculated via non-linear regression using GraphPad PRISM 3.02 (GraphPad Software, San Diego, Calif.). The results were expressed as means.
(§6) Compounds were tested in at least three separate experiments in five concentrations ranging from 0.01 to 30 μM.

human PPAR γ = biological target: T2, human PPAR γ (Homo sapiens, UniProt P37231); assay: In vitro PPAR gamma transactivation assay (GAL4-DBD-PPAR-LBD luciferase reporter in HEK293 cells); assay type: cell-based; details: for EC50: HEK293 cells, 24 h with compound, five concentrations 0.01 to 30 μM, means of at least three experiments, read-out: In vitro activation PPAR γ EC50; for In vitro activation PPAR γ % max: fold activation relative to maximum activation obtained with rosiglitazone (approx. […] fold corresponded to 100%)
T2 construct: PPARα: aa 167-C-terminus; PPARγ: aa 165-C-terminus; expressed in transfected cells; host or cells: HEK293
T2 sequence (P37231 165-477 isoform P37231-2): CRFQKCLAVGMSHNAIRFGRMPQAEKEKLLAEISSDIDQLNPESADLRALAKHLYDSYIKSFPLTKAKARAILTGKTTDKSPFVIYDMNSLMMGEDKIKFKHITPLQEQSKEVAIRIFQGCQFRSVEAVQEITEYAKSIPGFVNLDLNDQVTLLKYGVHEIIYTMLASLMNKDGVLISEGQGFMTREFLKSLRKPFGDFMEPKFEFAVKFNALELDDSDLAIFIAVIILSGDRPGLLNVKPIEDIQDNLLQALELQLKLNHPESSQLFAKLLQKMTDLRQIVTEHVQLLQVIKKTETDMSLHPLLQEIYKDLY
Description: as §1, §2, §3, §4, §5, §6

| EC50 (human PPAR α) [nM] | In vitro activation PPAR α % max (human PPAR α) [%] | EC50 (human PPAR γ) [nM] | In vitro activation PPAR γ % max (human PPAR γ) [%] | Maximum activation PPAR α (fold activation) (human PPAR α; reference maximum, corresponded to 100%) | SMILES |
| --- | --- | --- | --- | --- | --- |
| 160 | 181 | 2670 | 91 | – | CCOC(Cc1ccc(OCC=C(C)C#Cc2cccc3ccccc23)cc1)C(=O)O (stereo in doubt) [Example 18, (Z)-(S)-2-ethoxy-3-[4-(3-methyl-5-(1-naphthyl)-pent-2-en-4-ynyloxy)-phenyl]-propionic acid] |
| 60 | 139 | 310 | 126 | – | CCO[C@@H](Cc1ccc(OC/C=C(\C)C#Cc2cc(Cl)cc(Cl)c2)cc1)C(=O)O [Example 8, (E)-(S)-2-ethoxy-3-[4-(3-methyl-5-(3,5-dichloro-phenyl)-pent-2-en-4-ynyloxy)-phenyl]-propionic acid] |
| 50 | 195 | 340 | 105 | – | CCO[C@@H](Cc1ccc(OC/C=C(\C)C#Cc2cccc(C(F)(F)F)c2)cc1)C(=O)O [Example 12, (E)-(S)-2-ethoxy-3-[4-(3-methyl-5-(3-trifluoromethyl-phenyl)-pent-2-en-4-ynyloxy)-phenyl]-propionic acid] |
| 40 | 154 | 1420 | 112 | – | CCO[C@@H](Cc1ccc(OC/C=C/C#Cc2cc(Cl)cc(Cl)c2)cc1)C(=O)O [Example 20, (E)-(S)-2-Ethoxy-3-[4-(5-(3,5-dichloro-phenyl)-pent-2-en-4-ynyloxy)-phenyl]-propionic acid] |
| – | – | – | – | approx. 20 fold | Cc1cccc(Nc2cc(Cl)nc(SCC(=O)O)n2)c1C [Wy14643, reference compound] |
